pIC50: −log10 of the molar value.

Experimental findings from patent EP4635958A1, “PYRIMIDINE-CONTAINING POLYCYCLIC DERIVATIVE INHIBITOR, AND PREPARATION METHOD THEREFOR AND USE THEREOF” (Shanghai Hansoh Biomedical Co., Ltd., priority 2022, dated 2024) are described below.

Series [1] in a line: Plasma stability test, dog plasma.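 As to all read-outs here: parent compound left in dog plasma quantified by LC-MS with positive electrospray ionization, selected reaction monitoring and an internal standard.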 The note with it: for half-life: read-out: t1/2 (converted). The series is classed as in vitro ADME.
Procedure: (§1) Liquid chromatography-mass spectrometer, centrifuge, vortexer, pipette, continuous dispenser, 96-well plate, 50% methanol aqueous solution, acetonitrile solution containing internal standard, blank matrix (plasma of rat, dog, or human), Propantheline (propantheline bromide), Mevinolin (lovastatin), and test compound.
(§2) After whole blood was collected from animals or humans, it was placed in a test tube containing an anticoagulant and centrifuged at 3500 rpm for 10 min to collect the upper pale yellow plasma.
(§3) The compound was weighed and the stock solution was formulated with DMSO and the working solution was formulated with 100 mM phosphate buffer.
(§4) • Instrument: API4000 liquid chromatography-mass spectrometer, AB Company, USA; • the ion source was electrospray ionization source (ESI); • drying gas (N2) temperature was 500°C; • electrospray voltage was 5500V; • the detection method was positive ion detection; • the scanning method was selected reaction monitoring (MRM); • the scanning time was 0.1s.
The next series concerns AsPC-1. Put plainly: Inhibition of proliferation of KRAS G12D mutant tumor cell line AsPC-1 (CellTiter-Glo). The series is classed as cell-based. The note with it: Homo sapiens, ASPC1, about 72 h. Summed up:
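KRAS G12D-mutant AsPC-1 cells plated overnight at 37 °C/5% CO2, then exposed to serial compound dilutions (DMSO/medium, vehicle control) for about 72 h. Viability read by CellTiter-Glo luminescence; inhibition rate vs concentration fitted by nonlinear regression for IC50.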

Series [2] in a line: Plasma stability test, mouse plasma.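 As to all read-outs here: test compound quantified by LC-MS using positive-mode electrospray ionization and MRM scanning, with an internal standard added in acetonitrile.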 The note with it: for half-life: read-out: t1/2 (converted). The series is classed as in vitro ADME.
Procedure: as §1, §2, §3, §4
For series [3], the system named is human pancreatic cancer cell line (HPAC). As to the kind of experiment: Antitumor efficacy in mouse transplanted tumor model of human pancreatic cancer cell line (HPAC). The series is classed as in vivo, mice (BALB/c nude). The note with it: Table 11, HPAC xenograft, 100mpk, PO*BID; for Tumor volume (mm^3, Mean ± SD) Day 0: Day 0 (baseline). The source says:
8-10 week old female conventional immunodeficient mice (BALB/c nude) with a body weight of 18 g-22 g were used as experimental animals, and a transplanted tumor model of human pancreatic cancer cell line (HPAC) was used to conduct in vivo efficacy experiments to test the anti-tumor results of the example compounds after gavage administration.
The example compounds of the present invention, made in house.
A certain amount of the example compound was weighed, and an appropriate amount of 10% vehicle (Solutol HS15) was added. The mixture was stirred on a magnetic stirrer for 0.5 h to formulate a homogeneous suspension at the desired concentration.
Human pancreatic cancer cell line (HPAC) was derived from COBIOER BIOSCIENCES CO., LTD, cultured on DMEM/F12 medium (Gibco, 11330-032) supplemented with 10% fetal calf serum (Gibco, 10091-148), 1×Insulin (51500-056, Gibco) and 10 ng/ml of EGF (PHG0311, Gibco) and observed under a microscope (Thermo Fisher, 311). The cells were routinely passaged when the cells reached 80%-90% confluence in the culture flask. The passaged cells were cultured in a 37°C, 5% CO2 incubator (Thermo Fisher, 311).
Under aseptic conditions, human pancreatic cancer cells (HPAC) in the logarithmic growth phase were harvested using 0.25% trypsin-EDTA (Gibco, 25200-056), washed and resuspended with phosphate buffer. The cell suspension was mixed with Matrigel (Corning, 356234) at a 1 : 1 ratio (v/v) and implanted subcutaneously into the right anterior dorsal region of immunodeficient mice (BALB/c nude). Each mouse was inoculated with 3*10^6 cells in a volume of 100 microliters (µL). After inoculation, when the tumor volume reached 100-200 mm^3, the mice would be evenly randomized into 5 groups based on the tumor size, with 5 mice per group, for in vivo efficacy experiments. The negative control group was the vehicle group.
Mode of administration: The example compounds were administered orally.
Twice a week, the long and short diameters of the tumor were measured using a vernier caliper, and the tumor volume (mm^3) was calculated using the formula: V = 0.5*D*d*d, where D and d are the long and short diameters of the tumor, respectively. The anti-tumor efficacy was determined by dividing the average increase in tumor volume of compound-treated animals by the average increase in tumor volume of untreated animals. The calculation formula for tumor inhibition rate was: When there is no tumor regression, TGI(%) = 100-[(Vt-V0) administration group/(Vt-V0) vehicle control group]*100%. When tumor regression occurs, TGI(%) = [1-(Vt-V0) administration group/V0 vehicle control group]*100%. All animals were euthanized after the experiment.

As for `[2H]C([2H])([2H])[C@@H]1Oc2nc(-c3cc(O)cc4ccc(F)c(C#C)c34)c(F)c3nc(OCC4(CN5CCC(=C(F)F)CC5)CC4)nc(c23)N2C[C@H]3CC[C@H](N3)[C@@H]12` [Example 161, 4-((5S,5aS,6S,9R)-12-((1-((4-(difluoromethylene)piperidin-1-yl)methyl)cyclopropyl)methoxy)-1-fluoro-5-(methyl-d3)-5a,6,7,8,9,10-hexahydro-5H-4-oxa-3,10a,11,13,14-pentaaza-6,9-methylnaphtho[1,8-ab]hept-2-yl)-5-ethynyl-6-fluoronaphthalen-2-ol], the half-life in series [1] (Dog plasma, 37°C) is 1.31 days; in series [2] (Mouse plasma, 37°C), 9.52 days. The “Remaining rate (%) 0 min” value in series [1] (dog, plasma, 0 h) is 100.00%; in series [2] (mouse, plasma, 0 h) it was 100.00%. For the same molecule, the “Remaining rate (%) 15 min” value in series [1] (dog, plasma, 0.25 h) was determined as 91.74%; in series [2] (mouse, plasma, 0.25 h), 101.36%. Further, the “Remaining rate (%) 30 min” value in series [1] (dog, plasma, 0.5 h) was determined as 92.09%; in series [2] (mouse, plasma, 0.5 h) it was 101.38%. The “Remaining rate (%) 60 min” value was 90.97% in series [1] (dog, plasma, 1 h) and 98.35% in series [2] (mouse, plasma, 1 h). Further, the “Remaining rate (%) 120 min” value in series [1] (dog, plasma, 2 h) was 88.28%; in series [2] (mouse, plasma, 2 h) it was 101.35%. Moreover, the pIC50 in the series on AsPC-1 was 8.36. The “Tumor volume (mm^3, Mean ± SD) Day 0” value in series [3] is reported as 209 mm^3. In series [3], the “TGI(%) Day 21” value is recorded as 137.45%. Besides, the “Tumor volume (mm^3, Mean ± SD) Day 21” value in series [3] was determined as 131 mm^3. Further, the “ΔT/ΔC(%) Day 21” value in series [3] was 11.47%.

Turning to `[2H]C([2H])(Oc1nc2c3c(nc(-c4cc(O)cc5ccc(F)c(C#C)c45)c(F)c3n1)O[C@@H](C)[C@@H]1[C@@H]3CC[C@H](CN21)N3)C1(C([2H])([2H])N2CCC(=CF)CC2)CC1` [Example 291, 5-ethynyl-6-fluoro-4-((5S,5aS,6S,9R)-1-fluoro-12-((1-((4-(fluoromethylene)piperidin-1-yl)methyl-d2)cyclopropyl)methoxy-d2)-5-methyl-5a,6,7,8,9,10-hexahydro-5H-4-oxa-3,10a,11,13,14-pentaaza-6,9-methylnaphtho[1,8-ab]hept-2-yl)naphthalen-2-ol], the “Remaining rate (%) 0 min” value worked out at 100.00% in series [1] (Dog plasma, 37°C, 0 min) and 100.00% in series [2] (Mouse plasma, 37°C, 0 min). The “Remaining rate (%) 15 min” value is given as 104.39% in series [1] (Dog plasma, 37°C, 15 min) and 97.50% in series [2] (Mouse plasma, 37°C, 15 min). Besides, the “Remaining rate (%) 30 min” value in series [1] (Dog plasma, 37°C, 30 min) is 94.89%; in series [2] (Mouse plasma, 37°C, 30 min), 82.58%. Moreover, the “Remaining rate (%) 60 min” value in series [1] (Dog plasma, 37°C, 60 min) was determined as 103.00%; in series [2] (Mouse plasma, 37°C, 60 min) it was 81.82%. Besides, the “Remaining rate (%) 120 min” value in series [1] (Dog plasma, 37°C, 120 min) came out at 99.65%; in series [2] (Mouse plasma, 37°C, 120 min) it was 63.23%. Also, the half-life in series [1] (Dog plasma, 37°C) is 3.94 days; in series [2] (Mouse plasma, 37°C), 0.128 days. In addition, in the series on AsPC-1, the pIC50 was 8.34. For the same molecule, the “Tumor volume (mm^3, Mean ± SD) Day 0” value in series [3] is 210 mm^3. In addition, the “TGI(%) Day 21” value in series [3] is listed as 127.51%. The “Tumor volume (mm^3, Mean ± SD) Day 21” value in series [3] is on record as 153 mm^3. Besides, in series [3], the “ΔT/ΔC(%) Day 21” value is reported as 13.29%.
